From US10576064B2, “Spiro[3H-indole-3,2′-pyrrolidin]-2(1H)-one compounds and derivatives as MDM2-P53 inhibitors” (Boehringer Ingelheim International GmbH, priority 2014, dated 2020)

The compounds below were run against p53-MDM2 interaction (GST-MDM2 protein aa 23-117 / biotinylated p53 wt peptide) (Homo sapiens (Human), UniProt Q00987) (assay: MDM2-p53 Inhibition AlphaScreen). Conditions: 20 nM GST-MDM2 (aa 23-117), 20 nM biotinylated p53 wt peptide.
Assay type: biochemical
Excerpt: MDM2-p53 Inhibition AlphaScreen
Compound O=C(O)c1ccc(CN2CC[C@H]3[C@@H](C2=O)[C@H](c2cccc(Cl)c2F)[C@]2(C(=O)Nc4cc(Cl)ccc42)N3CC2CC2)cc1 [Compound I-208] has an IC50 of 210 nM.
CC(C)(C)CN1[C@H]2CCN(Cc3ccc(C(=O)O)cc3)C(=O)[C@H]2[C@H](c2cccc(Cl)c2F)[C@]12C(=O)Nc1cc(Cl)ccc12 [Compound I-210] gave an IC50 of 158 nM.
CCOc1cccc(CN2[C@H]3CCN(Cc4ccc(C(=O)O)cc4)C(=O)[C@H]3[C@H](c3cccc(Cl)c3F)[C@]23C(=O)Nc2cc(Cl)ccc23)c1 [Compound I-212] was tested, and the IC50 was 21 nM.
Compound COc1cccc(CN2[C@H]3CCN(Cc4ccc(C(=O)O)cc4)C(=O)[C@H]3[C@H](c3cccc(Cl)c3F)[C@]23C(=O)Nc2cc(Cl)ccc23)c1 [Compound I-214] has an IC50 of 34 nM.
O=C(O)c1ccc(N2C[C@H]3[C@@H](C2=O)[C@H](c2cccc(Cl)c2F)[C@]2(C(=O)Nc4cc(Cl)ccc42)N3CC2CC2)cc1 [Compound I-216] gave an IC50 of 6 nM.
In the case of O=C(O)c1ccc(N2C[C@H]3[C@@H](C2=O)[C@H](c2cccc(Cl)c2F)[C@]2(C(=O)Nc4cc(Cl)ccc42)N3CC2CC2)cc1 [Compound I-217], the IC50 is reported as 5 nM.
O=C(O)c1ccc(N2C[C@@H]3[C@H](C2=O)[C@@H](c2cccc(Cl)c2F)[C@@]2(C(=O)Nc4cc(Cl)ccc42)N3CC2CC2)cc1 [Compound I-218] showed an IC50 of 460 nM.
COc1cc(C(=O)O)ccc1N1C[C@H]2[C@@H](C1=O)[C@H](c1cccc(Cl)c1F)[C@]1(C(=O)Nc3cc(Cl)ccc31)N2CC1CC1 [Compound I-219] was tested, and the IC50 was 31 nM.
In the case of O=C(O)c1ccc(N2C[C@H]3[C@@H](C2=O)[C@H](c2cccc(Cl)c2F)[C@]2(C(=O)Nc4cc(Cl)ccc42)N3CC2CCC2)cc1 [Compound I-221], the IC50 is reported as 7 nM.
In the case of O=C(O)c1ccc(N2C[C@@H]3[C@H](C2=O)[C@@H](c2cccc(Cl)c2F)[C@@]2(C(=O)Nc4cc(Cl)ccc42)N3CC2CCC2)cc1 [Compound I-223], the IC50 is reported as 271 nM.
In the case of COCCN1[C@H]2CN(c3ccc(C(=O)O)cc3)C(=O)[C@H]2[C@H](c2cccc(Cl)c2F)[C@]12C(=O)Nc1cc(Cl)ccc12 [Compound I-224], the IC50 is reported as 17 nM.
O=C(O)c1ccc(N2C[C@H]3[C@@H](C2=O)[C@H](c2cccc(Cl)c2F)[C@]2(C(=O)Nc4cc(Cl)ccc42)N3CCC(F)(F)F)cc1 [Compound I-226] gave an IC50 of 12 nM.
Compound CC(C)(C)CN1[C@H]2CN(c3ccc(C(=O)O)cc3)C(=O)[C@H]2[C@H](c2cccc(Cl)c2F)[C@]12C(=O)Nc1cc(Cl)ccc12 [Compound I-228] has an IC50 of 11 nM.
For CC(C)(C)CN1[C@H]2CN(c3ccc(C(=O)O)cc3)C(=O)[C@H]2[C@H](c2cccc(Cl)c2F)[C@]12C(=O)Nc1cc(Cl)ccc12 [Compound I-229], the IC50 was 5 nM.
With O=C(O)c1ccc(N2C[C@H]3[C@@H](C2=O)[C@H](c2cccc(Cl)c2F)[C@]2(C(=O)Nc4cc(Cl)ccc42)N3CC2CC(F)(F)C2)cc1 [Compound I-230] the IC50 was 5 nM.
Compound O=C(O)c1csc(N2C[C@H]3[C@@H](C2=O)[C@H](c2cccc(Cl)c2F)[C@]2(C(=O)Nc4cc(Cl)ccc42)N3CC2CC2)n1 [Compound I-233] has an IC50 of 9 nM.
O=C(O)c1ccc(N2C[C@@H]3[C@H](C2=O)[C@@H](c2cccc(Cl)c2F)[C@@]2(C(=O)Nc4cc(Cl)ccc42)N3CC2CCCCC2)cc1 [Compound I-235] showed an IC50 of 980 nM.
O=C(O)c1ccc(N2C[C@@H]3[C@H](C2=O)[C@@H](c2cccc(Cl)c2F)[C@@]2(C(=O)Nc4cc(Cl)ccc42)N3CC2CCCC2)cc1 [Compound I-236] gave an IC50 of 488 nM.
Work on CCOc1cccc(CN2[C@H]3CN(c4ccc(C(=O)O)cc4)C(=O)[C@H]3[C@H](c3cccc(Cl)c3F)[C@]23C(=O)Nc2cc(Cl)ccc23)c1 [Compound I-237] yielded an IC50 of 2 nM.
Work on CCOc1cccc(CN2[C@@H]3CN(c4ccc(C(=O)O)cc4)C(=O)[C@@H]3[C@@H](c3cccc(Cl)c3F)[C@@]23C(=O)Nc2cc(Cl)ccc23)c1 [Compound I-239] yielded an IC50 of 1160 nM.
Compound CCOc1cccc(CN2[C@H]3CN(c4ccc(C(=O)O)cc4)C(=O)[C@H]3[C@H](c3cccc(Cl)c3F)[C@]23C(=O)Nc2nc(Cl)ccc23)c1 [Compound I-240] has an IC50 of 4 nM.
With O=C(O)c1ccc(CN2C[C@H]3[C@@H](C2=O)[C@H](c2cccc(Cl)c2F)[C@]2(C(=O)Nc4cc(Cl)ccc42)N3CC2CC2)cc1 [Compound I-242] the IC50 was 37 nM.
Compound O=C(O)c1ccc(N2C[C@H]3[C@@H](C2=O)[C@H](c2ccnc(Cl)c2F)[C@]2(C(=O)Nc4cc(Cl)ccc42)N3CC2CC2)cc1 [Compound I-244] has an IC50 of 4 nM.
CCOc1cccc(CN2[C@H]3CN(Cc4ccc(C(=O)O)cc4)C(=O)[C@H]3[C@H](c3cccc(Cl)c3F)[C@]23C(=O)Nc2cc(Cl)ccc23)c1 [Compound I-246] gave an IC50 of 17 nM.
CCOc1cccc(CN2[C@H]3CN(Cc4ccc(C(=O)O)cc4)C(=O)[C@H]3[C@H](c3cccc(Cl)c3F)[C@@]23C(=O)Nc2cc(Cl)ccc23)c1 [Compound I-248] gave an IC50 of 485 nM.
Work on COc1cc(N2C[C@H]3[C@@H](C2=O)[C@H](c2cccc(Br)c2F)[C@]2(C(=O)Nc4cc(Cl)ccc42)N3CC2CC2)ccc1C(=O)O [Compound I-250] yielded an IC50 of 9 nM.
O=C(O)c1ccc(N2C[C@H]3[C@@H](C2=O)[C@H](c2cccc(Br)c2F)[C@]2(C(=O)Nc4cc(Cl)ccc42)N3CC2CC2)cc1 [Compound I-252] showed an IC50 of 9 nM.
Compound O=C(O)c1ccc(N2C[C@H]3[C@@H](C2=O)[C@H](c2cccc(Br)c2F)[C@]2(C(=O)Nc4cc(Cl)ccc42)N3CC2CC2)cc1F [Compound I-254] has an IC50 of 9 nM.
Compound O=C(O)c1ccc(N2C[C@H]3[C@@H](C2=O)[C@H](c2cccc(Cl)c2F)[C@]2(C(=O)Nc4cc(Cl)ccc42)N3CC2CC2)cc1C(F)(F)F [Compound I-256] has an IC50 of 27 nM.
Work on COc1cc(N2C[C@H]3[C@@H](C2=O)[C@H](c2cccc(Cl)c2F)[C@]2(C(=O)Nc4cc(Cl)ccc42)N3CC2CC2)ccc1C(=O)O [Compound I-258] yielded an IC50 of 4 nM.
In the case of O=C(O)c1ccc(N2C[C@H]3[C@@H](C2=O)[C@H](c2cccc(Cl)c2F)[C@]2(C(=O)Nc4cc(Cl)ccc42)N3CC2CC2)cc1OC(F)(F)F [Compound I-259], the IC50 is reported as 11 nM.
In the case of Cc1cc(N2C[C@H]3[C@@H](C2=O)[C@H](c2cccc(Cl)c2F)[C@]2(C(=O)Nc4cc(Cl)ccc42)N3CC2CC2)ccc1C(=O)O [Compound I-261], the IC50 is reported as 5 nM.
O=C(CO)c1ccc(N2C[C@H]3[C@@H](C2=O)[C@H](c2cccc(Cl)c2F)[C@]2(C(=O)Nc4cc(Cl)ccc42)N3CC2CC2)cc1 [Compound I-262] showed an IC50 of 21 nM.
In the case of O=C(O)c1ccc(N2CC[C@H]3[C@@H](C2=O)[C@H](c2cccc(Cl)c2F)[C@]2(C(=O)Nc4cc(Cl)ccc42)N3CC2CC2)c(O)c1 [Compound I-264], the IC50 is reported as 49 nM.
For NC(=O)c1ccc(N2CC[C@H]3[C@@H](C2=O)[C@H](c2cccc(Cl)c2F)[C@]2(C(=O)Nc4cc(Cl)ccc42)N3CC2CC2)cc1 [Compound I-268], the IC50 was 26 nM.
CNC(=O)c1ccc(N2CC[C@H]3[C@@H](C2=O)[C@H](c2cccc(Cl)c2F)[C@]2(C(=O)Nc4cc(Cl)ccc42)N3CC2CC2)cc1 [Compound I-270] gave an IC50 of 27 nM.
CN(C)C(=O)c1ccc(N2CC[C@H]3[C@@H](C2=O)[C@H](c2cccc(Cl)c2F)[C@]2(C(=O)Nc4cc(Cl)ccc42)N3CC2CC2)cc1 [Compound I-272] showed an IC50 of 25 nM.
With O=C(NO)c1ccc(N2CC[C@H]3[C@@H](C2=O)[C@H](c2cccc(Cl)c2F)[C@]2(C(=O)Nc4cc(Cl)ccc42)N3CC2CC2)cc1 [Compound I-274] the IC50 was 20 nM.
CN(O)C(=O)c1ccc(N2CC[C@H]3[C@@H](C2=O)[C@H](c2cccc(Cl)c2F)[C@]2(C(=O)Nc4cc(Cl)ccc42)N3CC2CC2)cc1 [Compound I-276] was tested, and the IC50 was 46 nM.
For CON(C)C(=O)c1ccc(N2CC[C@H]3[C@@H](C2=O)[C@H](c2cccc(Cl)c2F)[C@]2(C(=O)Nc4cc(Cl)ccc42)N3CC2CC2)cc1 [Compound I-278], the IC50 was 33 nM.
NC(=O)c1ccc(N2C[C@H]3[C@@H](C2=O)[C@H](c2cccc(Cl)c2F)[C@]2(C(=O)Nc4cc(Cl)ccc42)N3CC2CC2)cc1 [Compound I-280] gave an IC50 of 7 nM.
NC(=O)c1ccc(N2C[C@H]3[C@@H](C2=O)[C@H](c2cccc(Cl)c2F)[C@]2(C(=O)Nc4cc(Cl)ccc42)N3CC2CC2)cc1C(F)(F)F [Compound I-281] gave an IC50 of 67 nM.
Compound CCOc1cccc(CN2[C@H]3CN(c4ccc(C(=O)NO)cc4)C(=O)[C@H]3[C@H](c3cccc(Cl)c3F)[C@]23C(=O)Nc2cc(Cl)ccc23)c1 [Compound I-283] has an IC50 of 4 nM.
Work on CCOc1cccc(CN2[C@H]3CN(c4ccc(C(N)=O)cc4)C(=O)[C@H]3[C@H](c3cccc(Cl)c3F)[C@]23C(=O)Nc2cc(Cl)ccc23)c1 [Compound I-284] yielded an IC50 of 3 nM.
In the case of O=C(NO)c1ccc(N2C[C@H]3[C@@H](C2=O)[C@H](c2cccc(Cl)c2F)[C@]2(C(=O)Nc4cc(Cl)ccc42)N3CC2CC2)cc1 [Compound I-285], the IC50 is reported as 8 nM.
For CN(C)C(=O)c1ccc(N2C[C@H]3[C@@H](C2=O)[C@H](c2cccc(Cl)c2F)[C@]2(C(=O)Nc4cc(Cl)ccc42)N3CC2CC2)cc1 [Compound I-286], the IC50 was 10 nM.
CNC(=O)c1ccc(N2C[C@H]3[C@@H](C2=O)[C@H](c2cccc(Cl)c2F)[C@]2(C(=O)Nc4cc(Cl)ccc42)N3CC2CC2)cc1 [Compound I-287] showed an IC50 of 8 nM.
NC(=O)c1ccc(N2C[C@H]3[C@@H](C2=O)[C@H](c2ccnc(Cl)c2F)[C@]2(C(=O)Nc4cc(Cl)ccc42)N3CC2CC2)cc1 [Compound I-288] gave an IC50 of 8 nM.
O=C(O)c1ccc(-c2cc(Cl)c(F)c([C@H]3[C@@H]4C(=O)NCC[C@@H]4N(CC4CC4)[C@@]34C(=O)Nc3cc(Cl)ccc34)c2)cc1 [Compound I-290] gave an IC50 of 36 nM.
In the case of Nc1ccc(N2CC[C@H]3[C@@H](C2=O)[C@H](c2cccc(Cl)c2F)[C@]2(C(=O)Nc4cc(Cl)ccc42)N3CC2CC2)cc1 [Compound I-292], the IC50 is reported as 164 nM.
In the case of CC(=O)Nc1ccc(N2CC[C@H]3[C@@H](C2=O)[C@H](c2cccc(Cl)c2F)[C@]2(C(=O)Nc4cc(Cl)ccc42)N3CC2CC2)cc1 [Compound I-296], the IC50 is reported as 58 nM.
Compound O=CNc1ccc(N2CC[C@H]3[C@@H](C2=O)[C@H](c2cccc(Cl)c2F)[C@]2(C(=O)Nc4cc(Cl)ccc42)N3CC2CC2)cc1 [Compound I-298] has an IC50 of 86 nM.
